The results in this text go back to PMC7851395 (British Journal of Cancer, 2020).

The test system of data set [1] is NSCLC cells (PC-9, A549 or H460). As to the kind of experiment: cells. Particulars: Supplementary Table 1, cell line (PC-9, A549 or H460) not assignable. It counts as cell-based, human. On the procedure:
(§1) The cytotoxicity and viability of human NSCLC cells and normal cells were determined by MTT assay. MTT assay was performed as described previously.[22] MTT assay was used to determine the cell cytotoxicity and viability in human NSCLC cells. Cells (5 × 10^3 cells/well) were plated in 96-well plates and attached overnight. After the proper treatment, the MTT solution was added at 25 µL/well and incubated at 37 °C for 4 h. The formazan crystals were dissolved in 150 µL of DMSO, and the optical density (OD) was measured using a Microplate Reader at 490 nm. The cell viability was calculated by the following formula: viability = (average OD values of treatment wells/average OD values of vehicle control wells) × 100%. And half-maximal inhibitory concentration (IC50) values were determined by GraphPad Pro Prism 7.0.

The test system of data set [2] is PC-9 cells. As to the kind of experiment: MTT cytotoxicity assay, PC-9 cells. The class given is cell-based. Particulars: Homo sapiens. How it is done:
as §1
Background: Tetrazolium assays rely on reduction of a dye to a coloured formazan, in cell work by metabolically active cells.

For data set [3], the target named is T1, CDK9 (Homo sapiens, UniProt P50750).
T1 construct: GST (N); purchased CDI Laboratories, Baltimore, MD Arrayit HuProt v2.0 19 K Human Proteome Microarrays
As to the kind of experiment: HuProt human proteome microarray binding. The note with it: 10 μM on HuProt microarray, CDK9 spots. How it is done: Arrayit HuProt™ v2.0 19 K Human Proteome Microarrays (CDI Laboratories, Baltimore, MD) were blocked for 1 h with 3% BSA at room temperature. Biotinylated bufalin was diluted to 10 μM in blocking buffer and cultured on the proteome microarray at room temperature for 1 h. The arrays were washed with PBST (a mixture of PBS and Tween 20) and incubated with Cy3-Streptavidin at 1:1000 dilution (Sigma-Aldrich) for 1 h at room temperature. Finally, the microarray was spun dry and scanned with a GenePix 4200 A microarray scanner (Molecular Devices, San Jose, CA). Data were analysed by GenePix Pro 6.0 software. The signal-to-noise ratio (SNR) was defined as the ratio of median foreground value minus median background value. The cut-off value of SNR (>1.1) was set.

Data set [4] deals with A549 cells. As to the kind of experiment: MTT cytotoxicity assay, A549 cells. The class given is cell-based. The note with it: Homo sapiens, A549. How it is done:
as §1

In data set [5] the test system is H460 cells. As to the kind of experiment: MTT cytotoxicity assay, H460 cells. The note with it: Homo sapiens, NCI-H460. The class given is cell-based. On the procedure: as §1
Data set [6] is described as follows: Pharmacokinetic study in rat plasma (LC-MS/MS). The class given is in vivo, S.D. rats. The note with it: 0.25 mg/kg i.v. and 2 mg/kg i.p. How it is done: For the pharmacokinetic study, female S.D. rats (body weight 200 ± 10 g) have fasted overnight with free access to water before the experiment. Twelve rats were randomly divided into four groups. The time schedule included eight timepoints, and three S.D. rats were sampled at each time-point. Bufalin and acetyl-bufalin were administered intravenously and intraperitoneally to the rats at the dose of 0.25 mg/kg and 2 mg/kg, respectively. The animals had free access to water during the experiment. Blood samples were collected from the retro-orbital plexus of each rat at 0.083, 0.25, 0.5, 1, 2, 4, 6, 8, 12, 24 h after administration. Plasma was separated from the blood after centrifugation at 6000×g for 10 min and frozen at −20 °C until analysis. In total, 20 µL of standard samples in duplicate, quality control samples in duplicate and rat plasma samples were mixed with 60 µL of ethyl acetate containing IS (200 ng/mL of tolbutamide, 50 ng/mL of propranolol and 500 ng/mL of Dic) in EP tubes. After the mixture was vortexed for 1 min, then centrifuged for 10 min (13,000 rpm, 4 °C), transferred 50 µL supernatant to a 96-well plate with 150 µL purred water, shacked for 10 min and finally injected 5 µL into liquid chromatographic-tandem mass spectrometry (LC-MS/MS) system for analysis.

For data set [7], the system named is H460 xenograft. It counts as in vivo, BALB/c nude mice. Particulars: 2 mg/kg i.p. every other day, compared with vehicle. On the procedure: All animal procedures were done accordingly with the Institutional laboratory animal research guidelines and were approved by Wenzhou Medical University Animal Policy and Welfare Committee. Female athymic BALB/c nude mice (5–6 weeks old) and immune-defective non-obese […] diabetic severe combined immunodeficiency (NOD-SCID) mice (6–8 weeks old) were purchased from the Vital River Experimental Animal Center (Beijing, China). All the mice were housed under 12 h light–dark cycles at 25 °C and free for water and diet. For the xenograft model, the H460 cells (5 × 10^6 cells were mixed with an equal volume of PBS and Matrigel in 100 μL) were implanted on the hind flank of nude mice. Once tumour volumes reached ~50 mm^3, 24 mice were divided into four experimental groups (six mice per group, no differences in mean body weights or tumour volumes between the groups) and intraperitoneal injection with 2 mg/kg SNS-032 (a recognised CDK9 inhibitor), bufalin and acetyl-bufalin every other day. Tumour volume was measured as V = (L × W × W)/2, in which L and W represent the length and width of tumour. Animals were killed by cervical dislocation once the tumour volume reached 1000 mm^3. The tumours, hearts, livers, kidneys and lungs were removed for use in the histology and western blot analysis.

The test system of data set [8] is NIH mice. Description: Acute toxicity test. It counts as in vivo. The note with it: 30 mg/kg single intraperitoneal injection, observed 14 days, n = 10. How it is done: In the acute toxicity test, 30 NIH mice (female, 8 weeks old) were randomly divided into three groups (n = 10), including vehicle group, bufalin group (30 mg/kg) and acetyl-bufalin group (30 mg/kg). The three groups received intraperitoneal injection only on the first day. All the mice were housed under 12 h light–dark cycles at 25 °C and free for water and diet. […] All the mice were sacrificed by cervical dislocation.

Data set [9] relates to P-CDK9, CDK9, P-STAT3 and S2 RNAPII. As to the kind of experiment: Western blot of CDK9/STAT3 pathway proteins. The class given is cell-based, human. The note with it: H460 and PC-9 cells, 12 h; acetyl-bufalin 25-200 nM, SNS-032 200 nM. How it is done: Tissue proteins were extracted with tissue protein lysate buffer. Cells were grown to different densities and extracted with cell protein lysate buffer. The protein was mixed with loading buffer and boiled for 10 min at 100 °C, then loaded and separated by 10% or 12% sodium dodecyl sulfate-polyacrylamide gel (SDS-PAGE) and then transferred onto a PVDF membrane blocking with 5% skim milk. The blots were incubated overnight with specific primary antibodies at 4 °C. On the second day, after washing with TBST (a mixture of tris-buffered saline (TBS) and Tween 20) three times, the […] membranes were incubated with horseradish peroxidase-conjugated secondary antibodies for 1 h. The immunoreactive bands were visualised with enhanced chemiluminescence reagent.

T1 sequence (P50750 whole entry): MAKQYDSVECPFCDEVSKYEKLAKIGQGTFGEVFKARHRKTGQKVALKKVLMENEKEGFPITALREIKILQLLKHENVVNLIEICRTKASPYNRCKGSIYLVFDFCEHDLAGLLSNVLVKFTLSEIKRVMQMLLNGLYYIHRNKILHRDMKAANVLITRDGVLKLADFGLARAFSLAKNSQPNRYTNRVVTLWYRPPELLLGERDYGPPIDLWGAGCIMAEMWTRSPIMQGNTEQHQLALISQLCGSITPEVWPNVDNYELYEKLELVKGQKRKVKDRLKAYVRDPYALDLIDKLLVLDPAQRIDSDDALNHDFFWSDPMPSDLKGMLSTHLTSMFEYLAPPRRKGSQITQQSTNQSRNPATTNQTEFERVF

As a reminder, the IC50 is the concentration at which inhibition is half-maximal. High values mean a need for much substance, low ones inhibition by little substance. `CC(=O)O[C@H]1C[C@]2(O)[C@@H]3CC[C@@H]4C[C@@H](O)CC[C@]4(C)[C@H]3CC[C@]2(C)[C@H]1c1ccc(=O)oc1` [Bufotalin] showed an IC50 in data set [1] (Homo sapiens) of 0.813 µM.

For the compound Resibufagin, 16 µM corresponded to half-maximal inhibition in data set [1] (IC50).

In the case of `C[C@]12CC[C@H](OC(=O)CCCC[C@@H]3SC[C@@H]4NC(=O)N[C@@H]43)C[C@H]1CC[C@@H]1[C@@H]2CC[C@]2(C)[C@H](c3ccc(=O)oc3)CC[C@@]12O` [bio-bufalin], in [2] (PC-9, 48 h), the IC50 is 0.0771 µM. In addition, the “signal-to-noise ratio (SNR)” value in [3] amounted to 6.748.

With `C[C@]12CC[C@H](O)C[C@H]1CC[C@@H]1[C@@H]2CC[C@]2(C)[C@@H](c3ccc(=O)oc3)C[C@H]3O[C@]132` [Resibufogenin], the IC50 came out at 1.13 µM in data set [4], 1.06 µM in data set [5] and 4.64 µM in data set [2] (PC-9).

Take `CC(=O)O[C@H]1[C@H]2O[C@]23[C@@H]2CC[C@]4(O)C[C@@H](O)CC[C@]4(C)[C@H]2CC[C@]3(C)[C@H]1c1ccc(=O)oc1` [Cinobufotalin]: the IC50 in data set [1] (Homo sapiens) was found to be 0.587 µM.

Regarding `CC(=O)O[C@H]1[C@H]2O[C@]23[C@@H]2CC[C@@H]4C[C@@H](O)CC[C@]4(C)[C@H]2CC[C@]3(C)[C@H]1c1ccc(=O)oc1` [Cinobufagin], it took 0.414 µM to reach half-maximal inhibition in data set [1] (Homo sapiens) (IC50).

As for `C[C@]12CC[C@H](O)C[C@H]1CC[C@@H]1[C@@H]2CC[C@]2(C)[C@@H](c3ccc(=O)oc3)CC[C@]12O` [bufalin, reference compound], the absorption entry in data set [6] is recorded as “fast absorption”. For the same compound, the IC50 in [4] was determined as 0.0832 µM; in data set [5], 0.0647 µM; in data set [2] (PC-9, 48 h), 0.141 µM. Further, in data set [7], the “tumour growth (weight and volume)” value is listed as “significantly inhibited tumour growth”. The “mortality (mice died)” value in data set [8] is on record as 10/10.

In the case of `CC(C)(C)c1cnc(CSc2cnc(NC(=O)C3CCNCC3)s2)o1` [SNS-032, reference compound], the “tumour growth (weight and volume)” value in data set [7] is recorded as “significantly inhibited tumour growth”. Besides, the “P-CDK9, CDK9, P-STAT3 and S2 RNAPII expressions” value in data set [9] is listed as “significantly dose-dependently decreased”.
